# Test results taken from ChEMBL document CHEMBL4610014, “Discovery of novel 2,4-disubstituted pyrimidines as Aurora kinase inhibitors” (Bioorg Med Chem Lett, 2020).
# The source made the active and inactive calls. No cut-off for these calls is given here.
# Tests used:
# A549 = assay: Antiproliferative activity against human A549 cells assessed as reduction in cell viability after 72 hrs by MTT assay; format: functional, cell-based; conditions: A549, 72 h
# HCT-116 [1] = assay: Antiproliferative activity against human HCT116 cells assessed as reduction in cell viability after 72 hrs by MTT assay; format: functional, cell-based; conditions: HCT-116, 72 h
# MCF7 = assay: Antiproliferative activity against human MCF7 cells assessed as reduction in cell viability after 72 hrs by MTT assay; format: functional, cell-based; conditions: MCF7, 72 h
# Aurora kinase C = target: T1, Aurora kinase C (Homo sapiens, UniProt Q9UQB9)
# T1 sequence (Q9UQB9 whole entry): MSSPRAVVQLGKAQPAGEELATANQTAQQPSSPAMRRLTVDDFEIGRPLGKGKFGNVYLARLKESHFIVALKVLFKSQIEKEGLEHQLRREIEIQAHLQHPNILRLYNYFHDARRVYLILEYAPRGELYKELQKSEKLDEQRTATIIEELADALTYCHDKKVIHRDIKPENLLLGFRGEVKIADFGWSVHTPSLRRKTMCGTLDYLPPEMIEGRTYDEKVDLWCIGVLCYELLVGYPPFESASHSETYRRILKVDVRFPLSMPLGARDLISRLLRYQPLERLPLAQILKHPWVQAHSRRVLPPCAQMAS
# Description: Inhibition of recombinant full-length His-tagged human Aurora C expressed in baculovirus expression system
# Aurora kinase A = target: T2, Aurora kinase A (Homo sapiens, UniProt O14965); assay: Inhibition of Aurora A (unknown origin) after 1 hr in presence of ATP by Kinase-Glo reagent-based luminescence assay
# T2 sequence (O14965 whole entry): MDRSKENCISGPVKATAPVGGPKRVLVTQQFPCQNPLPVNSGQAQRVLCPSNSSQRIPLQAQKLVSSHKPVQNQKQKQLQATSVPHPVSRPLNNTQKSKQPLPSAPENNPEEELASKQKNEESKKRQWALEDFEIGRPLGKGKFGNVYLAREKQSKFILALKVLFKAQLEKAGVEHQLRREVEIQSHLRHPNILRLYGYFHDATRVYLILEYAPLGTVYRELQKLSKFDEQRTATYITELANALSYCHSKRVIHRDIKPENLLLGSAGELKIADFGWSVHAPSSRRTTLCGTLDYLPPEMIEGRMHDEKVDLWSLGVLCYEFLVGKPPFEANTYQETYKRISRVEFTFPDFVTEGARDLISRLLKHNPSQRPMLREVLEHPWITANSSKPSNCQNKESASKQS
# Aurora kinase B [2] = target: T3, Aurora kinase B (Homo sapiens, UniProt Q96GD4); assay: Inhibition of Aurora B (unknown origin) after 1 hr in presence of ATP by Kinase-Glo reagent-based luminescence assay
# [3] = target: Vascular endothelial growth factor receptor 2 (Homo sapiens) (UniProt P35968); assay: Inhibition of VEGFR2 (unknown origin) at 1 uM after 1 hr in presence of ATP by Kinase-Glo reagent-based luminescence assay relative to control
# [4] = target: Phosphatidylinositol 4,5-bisphosphate 3-kinase catalytic subunit alpha isoform (Homo sapiens) (UniProt P42336); assay: Inhibition of PI3Kalpha (unknown origin) at 1 uM after 1 hr in presence of ATP by Kinase-Glo reagent-based luminescence assay relative to control
# [5] = target: Fibroblast growth factor receptor 1 (Homo sapiens) (UniProt P11362); assay: Inhibition of FGFR1 (unknown origin) at 1 uM after 1 hr in presence of ATP by Kinase-Glo reagent-based luminescence assay relative to control
# [6] = target: T4, Aurora kinase A (Homo sapiens) (UniProt O14965); assay: Inhibition of Aurora A in human HCT116 cells assessed as reduction in phosphorylation at Thr288 residue at 0.5 to 5 uM after 12 hrs by Western blot analysis; format: cell-based; conditions: HCT-116
# T4 sequence (whole entry): T2 sequence (O14965 whole entry)
# Aurora kinase B [7] = target: T3, Aurora kinase B; assay: Inhibition of Aurora B in human HCT116 cells assessed as reduction in phosphorylation at Thr232 residue at 0.5 to 5 uM after 12 hrs by Western blot analysis; format: cell-based; conditions: HCT-116
# HCT-116 [8] = assay: Induction of apoptosis in human HCT116 cells assessed as viable cells at 0.1 uM after 48 hrs by Annexin-V/PI-staining based flow cytometry (reference value: 89.72%); format: functional; conditions: HCT-116, 48 h, read-out: Activity
# HCT-116 [9] = assay: Induction of apoptosis in human HCT116 cells assessed as early apoptotic cells at 0.1 uM after 48 hrs by Annexin-V/PI-staining based flow cytometry (reference value: 0.54%); format: functional
# HCT-116 [10] = assay: Induction of apoptosis in human HCT116 cells assessed as late apoptotic cells at 0.1 uM after 48 hrs by Annexin-V/PI-staining based flow cytometry (reference value: 3.34%); format: functional
# HCT-116 [11] = assay: Induction of apoptosis in human HCT116 cells assessed as necrotic cells at 0.1 uM after 48 hrs by Annexin-V/PI-staining based flow cytometry (reference value: […]); format: functional
# HCT-116 [12] = assay: Induction of apoptosis in human HCT116 cells assessed as viable cells at 0.5 uM after 48 hrs by Annexin-V/PI-staining based flow cytometry (reference value: 89.72%); format: functional; conditions: HCT-116, 48 h, read-out: Activity
# HCT-116 [13] = assay: Induction of apoptosis in human HCT116 cells assessed as early apoptotic cells at 0.5 uM after 48 hrs by Annexin-V/PI-staining based flow cytometry (reference value: 0.54%); format: functional
# HCT-116 [14] = assay: Induction of apoptosis in human HCT116 cells assessed as late apoptotic cells at 0.5 uM after 48 hrs by Annexin-V/PI-staining based flow cytometry (reference value: 3.34%); format: functional
# HCT-116 [15] = assay: Induction of apoptosis in human HCT116 cells assessed as necrotic cells at 0.5 uM after 48 hrs by Annexin-V/PI-staining based flow cytometry (reference value: […]); format: functional
# HCT-116 [16] = assay: Induction of apoptosis in human HCT116 cells assessed as viable cells at 1 uM after 48 hrs by Annexin-V/PI-staining based flow cytometry (reference value: 89.72%); format: functional; conditions: HCT-116, 48 h, read-out: Activity
# HCT-116 [17] = assay: Induction of apoptosis in human HCT116 cells assessed as early apoptotic cells at 1 uM after 48 hrs by Annexin-V/PI-staining based flow cytometry (reference value: 0.54%); format: functional
# HCT-116 [18] = assay: Induction of apoptosis in human HCT116 cells assessed as late apoptotic cells at 1 uM after 48 hrs by Annexin-V/PI-staining based flow cytometry (reference value: 3.34%); format: functional
# HCT-116 [19] = assay: Induction of apoptosis in human HCT116 cells assessed as necrotic cells at 1 uM after 48 hrs by Annexin-V/PI-staining based flow cytometry (reference value: […]); format: functional
# HCT-116 [20] = assay: Induction of apoptosis in human HCT116 cells assessed as necrotic cells after 48 hrs by Annexin-V/PI-staining based flow cytometry; format: functional, cell-based
# HCT-116 [21] = assay: Induction of apoptosis in human HCT116 cells assessed as increase in bax protein expression at 0.5 to 5 uM after 12 hrs by Western blot analysis; format: functional, cell-based
# HCT-116 [22] = assay: Induction of apoptosis in human HCT116 cells assessed as decrease in bcl-xl protein expression at 0.5 to 5 uM after 12 hrs by Western blot analysis; format: functional, cell-based
# T3 sequence (Q96GD4 whole entry): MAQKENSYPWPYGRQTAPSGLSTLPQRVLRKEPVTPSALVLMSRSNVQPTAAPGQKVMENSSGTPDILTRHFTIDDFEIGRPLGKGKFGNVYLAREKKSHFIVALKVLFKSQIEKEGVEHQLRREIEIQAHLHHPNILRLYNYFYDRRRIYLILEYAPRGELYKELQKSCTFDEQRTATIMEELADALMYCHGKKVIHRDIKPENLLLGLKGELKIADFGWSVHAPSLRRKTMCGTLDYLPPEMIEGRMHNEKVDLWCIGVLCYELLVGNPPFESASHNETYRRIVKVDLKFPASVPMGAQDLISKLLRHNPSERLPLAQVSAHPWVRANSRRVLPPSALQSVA
# Sequence of Vascular endothelial growth factor receptor 2 (Homo sapiens) (P35968 whole entry, canonical isoform): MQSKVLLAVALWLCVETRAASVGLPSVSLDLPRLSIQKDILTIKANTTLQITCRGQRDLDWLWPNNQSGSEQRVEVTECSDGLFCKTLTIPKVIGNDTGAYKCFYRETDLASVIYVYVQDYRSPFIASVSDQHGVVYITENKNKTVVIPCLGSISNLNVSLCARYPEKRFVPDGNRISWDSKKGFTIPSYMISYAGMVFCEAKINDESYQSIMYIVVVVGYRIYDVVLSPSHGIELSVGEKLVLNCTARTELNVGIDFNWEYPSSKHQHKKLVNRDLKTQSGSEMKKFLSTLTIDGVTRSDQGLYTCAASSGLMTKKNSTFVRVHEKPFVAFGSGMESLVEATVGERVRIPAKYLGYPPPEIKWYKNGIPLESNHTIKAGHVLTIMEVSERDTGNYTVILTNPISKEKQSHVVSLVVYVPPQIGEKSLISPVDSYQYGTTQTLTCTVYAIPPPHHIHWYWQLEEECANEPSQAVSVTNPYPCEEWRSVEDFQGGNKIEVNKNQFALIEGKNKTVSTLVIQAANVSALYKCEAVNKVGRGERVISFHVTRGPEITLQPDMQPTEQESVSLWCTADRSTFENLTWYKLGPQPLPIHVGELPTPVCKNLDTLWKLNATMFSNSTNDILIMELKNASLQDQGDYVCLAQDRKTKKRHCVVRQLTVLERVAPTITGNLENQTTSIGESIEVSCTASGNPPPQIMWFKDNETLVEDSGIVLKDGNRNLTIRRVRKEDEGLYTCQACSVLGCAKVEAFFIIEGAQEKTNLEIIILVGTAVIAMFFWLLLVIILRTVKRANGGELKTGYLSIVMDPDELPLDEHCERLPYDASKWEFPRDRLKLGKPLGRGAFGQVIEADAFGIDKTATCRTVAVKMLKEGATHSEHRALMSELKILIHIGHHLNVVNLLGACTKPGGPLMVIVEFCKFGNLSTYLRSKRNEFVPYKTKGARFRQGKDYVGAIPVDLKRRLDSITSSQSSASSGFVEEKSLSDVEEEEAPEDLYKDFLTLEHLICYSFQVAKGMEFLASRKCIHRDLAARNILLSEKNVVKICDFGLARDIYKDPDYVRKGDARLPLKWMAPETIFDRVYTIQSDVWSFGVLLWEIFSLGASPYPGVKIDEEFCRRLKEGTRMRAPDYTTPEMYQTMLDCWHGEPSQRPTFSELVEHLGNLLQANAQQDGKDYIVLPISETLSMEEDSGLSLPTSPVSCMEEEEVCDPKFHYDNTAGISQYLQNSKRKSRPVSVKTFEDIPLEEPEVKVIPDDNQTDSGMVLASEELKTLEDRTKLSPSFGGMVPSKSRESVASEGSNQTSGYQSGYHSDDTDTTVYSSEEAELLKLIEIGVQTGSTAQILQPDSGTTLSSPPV
# Sequence of Fibroblast growth factor receptor 1 (Homo sapiens) (P11362 22-822 limits assumed): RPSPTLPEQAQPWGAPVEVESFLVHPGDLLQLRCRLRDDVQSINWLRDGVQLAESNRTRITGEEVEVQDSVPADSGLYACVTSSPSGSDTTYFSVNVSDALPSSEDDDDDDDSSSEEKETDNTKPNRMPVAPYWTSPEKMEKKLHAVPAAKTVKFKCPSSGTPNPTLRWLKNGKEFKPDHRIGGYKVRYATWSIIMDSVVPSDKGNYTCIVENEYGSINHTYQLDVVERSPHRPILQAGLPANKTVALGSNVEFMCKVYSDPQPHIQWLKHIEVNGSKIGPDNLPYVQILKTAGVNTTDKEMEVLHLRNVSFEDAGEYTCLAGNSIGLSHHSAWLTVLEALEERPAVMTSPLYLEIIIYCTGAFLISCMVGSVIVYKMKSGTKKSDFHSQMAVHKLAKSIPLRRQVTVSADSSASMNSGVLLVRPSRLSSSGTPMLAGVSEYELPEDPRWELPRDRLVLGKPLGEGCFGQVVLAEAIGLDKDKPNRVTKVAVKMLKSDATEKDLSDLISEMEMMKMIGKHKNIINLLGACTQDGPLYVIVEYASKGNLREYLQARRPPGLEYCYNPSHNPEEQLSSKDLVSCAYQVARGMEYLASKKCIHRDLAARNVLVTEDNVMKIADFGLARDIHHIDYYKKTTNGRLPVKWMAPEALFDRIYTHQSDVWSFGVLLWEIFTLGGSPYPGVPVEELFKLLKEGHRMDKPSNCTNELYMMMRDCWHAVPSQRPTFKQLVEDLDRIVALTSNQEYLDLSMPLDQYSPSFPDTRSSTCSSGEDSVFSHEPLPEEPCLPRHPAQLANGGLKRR
# Sequence of Phosphatidylinositol 4,5-bisphosphate 3-kinase catalytic subunit alpha isoform (Homo sapiens) (P42336 whole entry, canonical isoform): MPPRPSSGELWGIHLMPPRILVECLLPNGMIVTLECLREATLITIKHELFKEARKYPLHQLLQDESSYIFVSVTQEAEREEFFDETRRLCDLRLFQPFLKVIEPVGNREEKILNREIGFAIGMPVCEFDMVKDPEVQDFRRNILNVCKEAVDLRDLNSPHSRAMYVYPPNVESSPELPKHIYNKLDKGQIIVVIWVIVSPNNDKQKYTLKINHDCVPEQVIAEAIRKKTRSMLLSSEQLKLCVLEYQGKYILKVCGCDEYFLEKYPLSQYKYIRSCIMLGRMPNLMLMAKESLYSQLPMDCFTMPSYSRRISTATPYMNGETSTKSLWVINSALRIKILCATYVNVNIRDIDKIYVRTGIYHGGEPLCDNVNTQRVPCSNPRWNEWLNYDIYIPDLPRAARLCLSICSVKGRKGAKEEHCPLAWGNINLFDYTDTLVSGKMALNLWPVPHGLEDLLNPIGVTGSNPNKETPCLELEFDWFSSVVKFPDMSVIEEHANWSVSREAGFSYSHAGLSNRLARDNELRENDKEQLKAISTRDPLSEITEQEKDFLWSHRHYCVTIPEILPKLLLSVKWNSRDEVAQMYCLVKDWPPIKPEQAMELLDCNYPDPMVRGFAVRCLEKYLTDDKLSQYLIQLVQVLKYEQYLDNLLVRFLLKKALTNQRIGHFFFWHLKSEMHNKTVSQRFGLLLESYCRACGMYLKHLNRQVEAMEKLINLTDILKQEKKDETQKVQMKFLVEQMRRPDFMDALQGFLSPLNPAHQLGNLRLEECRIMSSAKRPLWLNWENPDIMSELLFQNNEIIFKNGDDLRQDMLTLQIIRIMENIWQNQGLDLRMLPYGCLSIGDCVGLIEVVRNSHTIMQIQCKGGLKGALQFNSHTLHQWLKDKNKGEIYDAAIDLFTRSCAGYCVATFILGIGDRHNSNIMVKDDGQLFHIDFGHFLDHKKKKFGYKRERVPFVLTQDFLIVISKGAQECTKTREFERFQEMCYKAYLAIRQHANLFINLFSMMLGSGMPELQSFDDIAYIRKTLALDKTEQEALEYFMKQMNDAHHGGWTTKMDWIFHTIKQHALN
structure (smiles),measurement,setting,value
O=C(CC1CCCCC1)Nc1ccc(Nc2nccc(NC3CCCC3)n2)cc1,IC50,A549,3.94 µM
same,IC50,HCT-116 [1],2.44 µM
same,IC50,MCF7,17.6 µM
O=C(Cc1cccc(C(F)(F)F)c1)Nc1ccc(Nc2nccc(NC3CCCC3)n2)cc1,IC50,A549,8.27 µM
same,IC50,HCT-116 [1],5.44 µM
same,IC50,MCF7,5.7 µM
c1nc2nc(Nc3ccc(N4CCOCC4)cc3)nc(NC3CCCCC3)c2[nH]1 [REVERSINE],IC50,Aurora kinase C,0.4 µM
Cc1cc(Nc2cc(N3CCN(C)CC3)nc(Sc3ccc(NC(=O)C4CC4)cc3)n2)n[nH]1 [TOZASERTIB],IC50,A549,3.9 µM
same,IC50,HCT-116 [1],1.49 µM
same,IC50,MCF7,17.4 µM
Cn1cc(Nc2ccnc(Nc3ccc(NC(=O)Nc4ccc(Cl)c(C(F)(F)F)c4)cc3)n2)cn1,IC50,A549,8.61 µM
same,IC50,HCT-116 [1],4.85 µM
same,IC50,MCF7,9.77 µM
O=C(Cc1ccc(Nc2nccc(NC3CCCC3)n2)cc1)NC1CCCCC1,IC50,A549,12.1 µM
same,IC50,HCT-116 [1],1.31 µM
same,IC50,MCF7,20.5 µM
same,IC50,Aurora kinase A,0.309 µM
same,IC50,Aurora kinase B [2],0.293 µM
same,inhibition,[3],< 1%
same,inhibition,[4],2.4%
same,inhibition,[5],< 1%
same,inhibition,[6],Active
same,inhibition,Aurora kinase B [7],Active
same,viability at 0.1 µM,HCT-116 [8],87.8%
same,Activity,HCT-116 [9],1.9%
same,Activity,HCT-116 [10],5.89%
same,Activity,HCT-116 [11],4.39%
same,viability at 0.5 µM,HCT-116 [12],58%
same,Activity,HCT-116 [13],3.99%
same,Activity,HCT-116 [14],22.54%
same,Activity,HCT-116 [15],15.45%
same,viability at 1 µM,HCT-116 [16],7.46%
same,Activity,HCT-116 [17],0.84%
same,Activity,HCT-116 [18],45.64%
same,Activity,HCT-116 [19],46.07%
same,Activity,HCT-116 [20],Dose-dependent effect
same,Activity,HCT-116 [21],Active
same,Activity,HCT-116 [22],Active
O=C(Nc1ccc(Nc2nccc(Nc3ccccc3)n2)cc1)Nc1ccc(Cl)c(C(F)(F)F)c1,IC50,A549,> 50 µM
same,IC50,HCT-116 [1],> 50 µM
same,IC50,MCF7,> 50 µM
CCCNc1ccnc(Nc2ccc(NC(=O)Nc3ccc(Cl)c(C(F)(F)F)c3)cc2)n1,IC50,A549,7.32 µM
same,IC50,HCT-116 [1],4.24 µM
same,IC50,MCF7,4.61 µM
O=C(Nc1ccc(Cl)cc1)Nc1ccc(Nc2nccc(NC3CCCC3)n2)cc1,IC50,A549,11.8 µM
same,IC50,HCT-116 [1],5.31 µM
same,IC50,MCF7,22 µM
O=C(Cc1ccc(Nc2nccc(NC3CCCC3)n2)cc1)Nc1cccc(C(F)(F)F)c1,IC50,A549,3.4 µM
same,IC50,HCT-116 [1],2.5 µM
same,IC50,MCF7,16.4 µM
O=C(Nc1ccc(Nc2nccc(Nc3ccccc3Cl)n2)cc1)Nc1ccc(Cl)c(C(F)(F)F)c1,IC50,A549,18.6 µM
same,IC50,HCT-116 [1],8.1 µM
same,IC50,MCF7,27.9 µM
O=C(Nc1ccc(Nc2nccc(Nc3cccc(Cl)c3)n2)cc1)Nc1ccc(Cl)c(C(F)(F)F)c1,IC50,A549,8.05 µM
same,IC50,HCT-116 [1],4.82 µM
same,IC50,MCF7,10.4 µM
O=C(Nc1ccc(Nc2nccc(NC3CCCCC3)n2)cc1)Nc1ccc(Cl)c(C(F)(F)F)c1,IC50,A549,7.43 µM
same,IC50,HCT-116 [1],5.95 µM
same,IC50,MCF7,10.8 µM
O=C(Nc1ccc(Nc2nccc(Nc3ccc(Cl)cc3)n2)cc1)Nc1ccc(Cl)c(C(F)(F)F)c1,IC50,A549,6.32 µM
same,IC50,HCT-116 [1],4.66 µM
same,IC50,MCF7,12.8 µM
O=C(Nc1ccc(Nc2nccc(NC3CCCC3)n2)cc1)Nc1ccc(Cl)c(C(F)(F)F)c1,IC50,A549,5.88 µM
same,IC50,HCT-116 [1],2.51 µM
same,IC50,MCF7,2.33 µM
O=C(Nc1ccc(Nc2nccc(NC3CCCC3)n2)cc1)Nc1cccc(C(F)(F)F)c1,IC50,A549,4.9 µM
same,IC50,HCT-116 [1],2.41 µM
same,IC50,MCF7,5.18 µM
O=C(Nc1ccc(Nc2nccc(NC3CCCC3)n2)cc1)NC1CCCCC1,IC50,A549,5.32 µM
same,IC50,HCT-116 [1],1.09 µM
same,IC50,MCF7,19.2 µM
same,IC50,Aurora kinase B [2],0.329 µM
same,inhibition,[3],4.5%
same,inhibition,[4],16.8%
same,inhibition,[5],< 1%
O=C(Nc1ccc(Nc2nccc(NC3CC3)n2)cc1)Nc1ccc(Cl)c(C(F)(F)F)c1,IC50,A549,18.5 µM
same,IC50,HCT-116 [1],16.4 µM
same,IC50,MCF7,38.2 µM
